Results from patent US6492124B1, “Trance activated signal transduction pathways in osteoclasts” (The Rockefeller University, priority 1999, dated 2002).

Columns and labels:
PKB = PKB activation in dendritic cells (phospho-PKB Western blot); type: cell-based, mouse
Protocol: FIG. 1. TRANCE activates p44/42 ERK, NF-κB and PKB in osteoclasts and dendritic cells. (A) Mature bone marrow-derived osteoclasts were stimulated for the indicated times with recombinant hCD8-TRANCE (TRANCE; 1 μg/ml). Levels of phosphorylated forms of p44/p42 ERK (p44 ERK^P and p42 ERK^P), IκBα (IκB-α^P) and PKB (PKB^P) in whole cell extracts were determined using phospho-peptide-specific antibodies as indicated in the figure. The membranes were stripped and incubated with antibodies against the p44/p42 ERK, IκB-α, and PKB as indicated to confirm that similar amounts of whole cell extracts were analyzed. Note the decrease of IκB-α after 10 min of treatment due to its degradation. (B) as in (A) except the use of mature bone marrow-derived dendritic cells instead of osteoclasts.
(§1) FIG. 2. TRANCE-induced PKB activation in osteoclasts and dendritic cells is blocked by inhibitors of PI3-kinase, tyrosine kinases and Src family kinases. (A) Osteoclasts were serum starved and then pretreated for 90 min with LY294002 (10 μM), Herbimycin A (Herb. A; 10 μM), and PP1 (10 μM) inhibitors which are specific for PI3-kinase, PTKs, and Src-family kinases, respectively, were stimulated for indicated times with TRANCE (1 μg/ml). Levels of phosphorylated p44/p42 ERK, PKB, and IκB-α were determined as described in FIG. 1. Cells pretreated with vehicle (DMSO) were used as a negative control. (B) as in (A) except the use of mature bone marrow-derived dendritic cells.
FIG. 6. Cytokine receptors that engage TRAF6 activate PKB through Src-family kinases. (A) Dendritic cells were treated with TNF (10 ng/ml), TRANCE (5 μg/ml), LPS (50 μg/ml), or IL-1α (20 ng/ml) for the indicated times (min). The activation of PKB was determined in whole cell extracts using a phospho-PKB-specific antibody as described in FIG. 1. (B) Dendritic cells were pretreated with vehicle (DMSO) or the Src-family kinase inhibitor, PP1 (10 μM) for 90 minutes followed by a 15 minute treatment with TRANCE (5 μg/ml), LPS (50 μg/ml), or IL-1α (20 ng/ml) or no treatment at all (−). The activation of PKB was determined as described in FIG. 1.
Primary cells and cell lines. Osteoclasts and macrophages were generated from bone marrow precursors as described (Wani, et al., Endocrinology, 140:[…], 1999). In brief, bone marrow cells from tibiae and femur of 4-6 week old mice (C57BL/6, Jackson Laboratories) were cultured overnight in media (α-MEM, 10% FCS) in the presence of CSF-1 (5 ng/ml). After 24 hours, non-adherent cells were harvested, washed, and further cultured in media with CSF-1 (50 ng/ml) plus TRANCE (10 ng/ml) to develop osteoclasts, or with CSF-1 alone to develop macrophages. Using these conditions, after 4 days of culture, greater than 95 percent of the adherent cells were osteoclasts or macrophages. For experiments described in this study, only adherent cells were used after extensive washing. Mature dendritic cells were generated from bone marrow precursors of 4-6 week old female C57BL/6 mice (C57BL/6, Jackson Laboratories) cultured in media (RPMI1640, 5% FBS) and GM-CSF (1:30 cultured supernatant from the J558 cell line, a gift from Dr. R. M. Steinman, The Rockefeller University) for 8 days as previously described (Inaba, et al., J. Exp. Med., 176:1693-1702, 1992). To generate osteoclasts and dendritic cells from c-Src deficient mice, spleen cells, which contain hematopoietic precursors due to extramedullary hematopoeisis, were substituted for bone marrow cells as previously described (Schwartzberg, et al., Genes Dev., 11:2835-2844, 1997). Mature spleen-derived dendritic cells were isolated from spleens treated with collagenase (40 U/ml; Boehinger Mannheim) and subjected to a Nycodenz centrifugation gradient (14.5%; Nycomed) to obtain low density cells. After allowing them adhere for 2 hours to a tissue culture dish, contaminating floater cells were washed away and mature dendritic cells were obtained by overnight culture.
Cell stimulation, cell transfection and in vitro assays. […]

NF-κB = NF-κB activation measured by IκB-α phosphorylation/degradation in osteoclasts and dendritic cells (Western blot); type: cell-based, mouse; conditions: osteoclasts and dendritic cells, beginning at 10 min of TRANCE, coinciding with peak of IκB-α phosphorylation
Protocol: FIG. 1. […] (A) Mature bone marrow-derived osteoclasts were stimulated for the indicated times with recombinant hCD8-TRANCE (TRANCE; 1 μg/ml). Levels of phosphorylated forms of p44/p42 ERK (p44 ERK^P and p42 ERK^P), IκBα (IκB-α^P) and PKB (PKB^P) in whole cell extracts were determined using phospho-peptide-specific antibodies as indicated in the figure. […] (B) as in (A) except the use of mature bone marrow-derived dendritic cells instead of osteoclasts.
as §1, with “TRANCE-induced PKB activation in osteoclasts and dendritic cells is blocked by inhibitors of PI3-kinase, tyrosine kinases and Src family kinases.” left out
Primary cells and cell lines. […] In brief, bone marrow cells from tibiae and femur of 4-6 week old mice (C57BL/6, Jackson Laboratories) were cultured overnight in media (α-MEM, 10% FCS) in the presence of CSF-1 (5 ng/ml). […] For experiments described in this study, only adherent cells were used after extensive washing. […] After allowing them adhere for 2 hours to a tissue culture dish, contaminating floater cells were washed away and mature dendritic cells were obtained by overnight culture.
Cell stimulation, cell transfection and in vitro assays. In vitro differentiated mature dendritic cells, macrophages and osteoclasts were washed to remove exogenous growth factors, cultured in media with low serum (0.5% FCS, 6 hours), then stimulated by adding various cytokines in the presence or absence of inhibitors for various times as indicated. After stimulation, the cells were washed in ice-cold PBS, and subjected to Western blot analysis or immunoprecipitation as described below. […]

TNF-related activation-induced cytokine [TRANCE]
PKB activation in dendritic cells stimulated with cytokine (PKB; TNF 10 ng/ml, TRANCE 5 μg/ml, LPS 50 μg/ml, IL-1α 20 ng/ml, CD40L data not shown): activated
PKB activation in dendritic cells from c-Src−/− mice (PKB; TRANCE-treated, compared with wild-type): not significantly reduced
time for which PKB activity was sustained (PKB; dendritic cells, TRANCE stimulation): greater than 3 hours
phosphorylated form of PKB upon TRANCE stimulation (PKB; dendritic cells, after 5 minutes, TRANCE 1 μg/ml): increase
total cellular IκB-α (NF-κB): decrease
